Data set [1] is described as follows: Dissociation constant, pKa of the compound at pH < 5. The format is physicochemical.
A short description of data set [2]: Drug uptake in human HuH7 cells assessed as localization in cytosol at 1 uM after 2 hrs by fluorescence microscopic analysis. The format is ADME, cell-based, Huh-7.
Data set [3] in a line: Dissociation constant, pKa of the compound at pH 4.8 to 8.2. Type of data set: physicochemical.
The subject of a further data set is Huh-7. The data set can be described thus: Cellular uptake in human HuH7 cells at 1 uM after 2 hrs by fluorescence microscopic analysis. The conditions noted are these: huh-7, 2 h. Type of data set: ADME, cell-based.

In general, pKa refers to the pH at which an ionisable group is half protonated. High values mean a group that holds its proton tightly, low ones a group that gives up its proton readily.

Take `CN(C)c1ccc(C#Cc2c3ccccc3c(C#Cc3cn([C@H]4C[C@H](O)[C@@H](CO)O4)c(=O)[nH]c3=O)c3ccccc23)cc1`: the pKa in data set [1] was found to be 3.
Still for that read-out and setting: under `CCC(CC)Nc1ccc(C#Cc2c3ccccc3c(C#Cc3cn([C@H]4C[C@H](O)[C@@H](CO)O4)c(=O)[nH]c3=O)c3ccccc23)cc1` stands 3.7.
For the compound `CC(C)(C)Nc1ccc(C#Cc2c3ccccc3c(C#Cc3cn([C@H]4C[C@H](O)[C@@H](CO)O4)c(=O)[nH]c3=O)c3ccccc23)cc1`, the pKa in data set [1] and in data set [3] was 6.1 in each case. Besides, in data set [2], the Drug uptake result is “Active”.
In data set [1], `Nc1ccc(C#Cc2c3ccccc3c(C#Cc3cn([C@H]4C[C@H](O)[C@@H](CO)O4)c(=O)[nH]c3=O)c3ccccc23)cc1` displayed a pKa of 3.9.
For `O=c1[nH]c(=O)n([C@H]2C[C@H](O)[C@@H](CO)O2)cc1C#Cc1c2ccccc2c(C#Cc2ccc(NC3CCCCC3)cc2)c2ccccc12`, in data set [1], the pKa worked out at 3.9.
In the case of `CCCCNc1ccc(C#Cc2c3ccccc3c(C#Cc3cn([C@H]4C[C@H](O)[C@@H](CO)O4)c(=O)[nH]c3=O)c3ccccc23)cc1`, the pKa in data set [1] was determined as 3.5.
`CNc1ccc(C#Cc2c3ccccc3c(C#Cc3cn([C@H]4C[C@H](O)[C@@H](CO)O4)c(=O)[nH]c3=O)c3ccccc23)cc1` yielded a pKa in data set [1] of 3.7. Besides, the Drug uptake entry in the data set on Huh-7 is on record as “Not Active”.

The record behind these values is ChEMBL document CHEMBL2016573, “Fluorescent nucleosides with 'on-off' switching function, pH-responsive fluorescent uridine derivatives” (Bioorg Med Chem Lett, 2012).
